Reference: ChEMBL document CHEMBL1201862, “PubChem BioAssay data set” (2004)
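Grown in 96-well plates, cells were treated for 48 hours with each compound at five concentrations. Insufficient inhibition: endpoint recorded as highest concentration tested. GI50 marks 50% less growth.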 Calls of active or inactive are those of the source. Cut-off read from the data, not from the text of the source: active = GI50 up to about 1.1 µM and inactive = higher.

Experiments:
Assay in all cases: growth of human tumour cells (NCI), 48 h
CAKI-1 = test system: CAKI-1
OVCAR-8 = test system: OVCAR-8
PC-3 = test system: PC-3
HL-60 = test system: HL-60
UACC-62 = test system: UACC-62
HCC 2998 = test system: HCC 2998
NCI-H460 = test system: NCI-H460
MOLT-4 = test system: MOLT-4
U-251 = test system: U-251
SR = test system: SR
TK-10 = test system: TK-10
SK-OV-3 = test system: SK-OV-3
SF-295 = test system: SF-295
SF-268 = test system: SF-268
SN12C = test system: SN12C
MDA-MB-435 = test system: MDA-MB-435
IGROV-1 = test system: IGROV-1
SK-MEL-28 = test system: SK-MEL-28
SNB-75 = test system: SNB-75

| Structure (SMILES) | GI50 (CAKI-1) | GI50 (OVCAR-8) | GI50 (PC-3) | GI50 (HL-60) | GI50 (UACC-62) | GI50 (HCC 2998) | GI50 (NCI-H460) | GI50 (MOLT-4) | GI50 (U-251) | GI50 (SR) | GI50 (TK-10) | GI50 (SK-OV-3) | GI50 (SF-295) | GI50 (SF-268) | GI50 (SN12C) | GI50 (MDA-MB-435) | GI50 (IGROV-1) | GI50 (SK-MEL-28) | GI50 (SNB-75) |
| --- | --- | --- | --- | --- | --- | --- | --- | --- | --- | --- | --- | --- | --- | --- | --- | --- | --- | --- | --- |
| Cc1ccc(-c2n[nH]c(=O)n2N2C(=O)C=CC2=O)cc1 | > 100 µM (inactive) | > 100 µM (inactive) | > 100 µM (inactive) | > 100 µM (inactive) | > 100 µM (inactive) | > 100 µM (inactive) | > 100 µM (inactive) | > 100 µM (inactive) | > 100 µM (inactive) | > 100 µM (inactive) | > 100 µM (inactive) | > 100 µM (inactive) | > 100 µM (inactive) | > 100 µM (inactive) | > 100 µM (inactive) | > 100 µM (inactive) | > 100 µM (inactive) | – | – |
| CC(=O)C(N1CCCCC1)C(O)(C(F)(F)F)C(F)(F)F (stereo not drawn) | > 100 µM (inactive) | > 100 µM (inactive) | 36.6 µM (inactive) | > 100 µM (inactive) | 86.9 µM (inactive) | > 100 µM (inactive) | 89.1 µM (inactive) | 24 µM (inactive) | 88.9 µM (inactive) | > 100 µM (inactive) | > 100 µM (inactive) | > 100 µM (inactive) | > 100 µM (inactive) | – | – | > 100 µM (inactive) | 89.9 µM (inactive) | > 100 µM (inactive) | 33.4 µM (inactive) |
| N#CCCN(CCN(C(=O)Nc1ccccc1)c1ccccc1)C(=O)Nc1ccccc1 | > 43 µM (inactive) | 64.3 µM (inactive) | 43.3 µM (inactive) | 13 µM (inactive) | 65 µM (inactive) | > 80.7 µM (inactive) | > 67.5 µM (inactive) | 28.8 µM (inactive) | 65.6 µM (inactive) | 42 µM (inactive) | 61.8 µM (inactive) | > 100 µM (inactive) | 62.5 µM (inactive) | > 100 µM (inactive) | – | 63.8 µM (inactive) | 76.7 µM (inactive) | > 91.6 µM (inactive) | > 100 µM (inactive) |
| CC1C[C@]2(C)C(=O)Nc3ccccc3[C@@H]2Nc2ccccc21 (stereo partly drawn) | 20.3 µM (inactive) | 14.8 µM (inactive) | 17.6 µM (inactive) | 36.4 µM (inactive) | 15.1 µM (inactive) | 33.7 µM (inactive) | 28.1 µM (inactive) | 17.4 µM (inactive) | – | 16.2 µM (inactive) | 21.2 µM (inactive) | – | 31.6 µM (inactive) | 23.7 µM (inactive) | 19.5 µM (inactive) | 24 µM (inactive) | 24.4 µM (inactive) | 28.6 µM (inactive) | 46.3 µM (inactive) |
| CSc1cnc2ccccc2c1SC1CN(Cc2ccccc2)c2ccccc2C1=O (stereo not drawn) | > 100 µM (inactive) | – | > 100 µM (inactive) | 35 µM (inactive) | > 100 µM (inactive) | > 100 µM (inactive) | > 100 µM (inactive) | > 100 µM (inactive) | > 100 µM (inactive) | > 100 µM (inactive) | > 100 µM (inactive) | > 100 µM (inactive) | > 100 µM (inactive) | 54.8 µM (inactive) | > 100 µM (inactive) | > 100 µM (inactive) | > 100 µM (inactive) | > 100 µM (inactive) | 83.4 µM (inactive) |
| CCN(CC)N1C(=O)[N-][N+](CC)(CC)C1=O | > 100 µM (inactive) | > 100 µM (inactive) | > 100 µM (inactive) | > 100 µM (inactive) | > 100 µM (inactive) | > 100 µM (inactive) | > 100 µM (inactive) | > 100 µM (inactive) | > 100 µM (inactive) | > 100 µM (inactive) | > 100 µM (inactive) | > 100 µM (inactive) | > 100 µM (inactive) | > 100 µM (inactive) | > 100 µM (inactive) | > 100 µM (inactive) | > 100 µM (inactive) | > 100 µM (inactive) | > 100 µM (inactive) |
| c1ccc(-c2nc(-c3ccccc3SSc3ccccc3-c3nc(-c4ccccc4)nn3-c3ccccc3)n(-c3ccccc3)n2)cc1 | > 100 µM (inactive) | > 100 µM (inactive) | > 100 µM (inactive) | > 100 µM (inactive) | > 100 µM (inactive) | > 100 µM (inactive) | > 100 µM (inactive) | > 100 µM (inactive) | > 100 µM (inactive) | > 100 µM (inactive) | > 100 µM (inactive) | > 100 µM (inactive) | > 100 µM (inactive) | > 100 µM (inactive) | > 100 µM (inactive) | > 100 µM (inactive) | > 100 µM (inactive) | > 100 µM (inactive) | > 100 µM (inactive) |
| COC(=O)C1(Cc2ccc3c(c2)CCC3)Cc2cc3c(cc2C1)CCC3 | – | 54.2 µM (inactive) | 46 µM (inactive) | 36.9 µM (inactive) | 71.3 µM (inactive) | 27.2 µM (inactive) | 35 µM (inactive) | 29.8 µM (inactive) | 37.4 µM (inactive) | 78.7 µM (inactive) | > 100 µM (inactive) | > 100 µM (inactive) | 33.3 µM (inactive) | 30.3 µM (inactive) | 50.5 µM (inactive) | 39 µM (inactive) | 80 µM (inactive) | 60.1 µM (inactive) | 46.6 µM (inactive) |
| NC(=O)C1CCN(Cc2c(Cl)c(Cl)c(CN3CCC(C(N)=O)CC3)c(Cl)c2Cl)CC1 | > 100 µM (inactive) | > 100 µM (inactive) | > 100 µM (inactive) | > 100 µM (inactive) | > 100 µM (inactive) | > 100 µM (inactive) | > 100 µM (inactive) | > 100 µM (inactive) | 34.8 µM (inactive) | > 100 µM (inactive) | > 100 µM (inactive) | 15.1 µM (inactive) | 23.7 µM (inactive) | 44.7 µM (inactive) | > 100 µM (inactive) | > 100 µM (inactive) | – | > 100 µM (inactive) | 24.3 µM (inactive) |
| CCCCCCN(CCCCCC)C(=S)N/N=C(\C)c1ccccn1 | 0.836 µM (active) | 0.815 µM (active) | 0.265 µM (active) | 0.0767 µM (active) | 1 µM (active) | 1.61 µM (inactive) | 1.09 µM (active) | 0.179 µM (active) | 0.393 µM (active) | 0.436 µM (active) | 0.993 µM (active) | 1.4 µM (inactive) | 1.53 µM (inactive) | 0.345 µM (active) | 0.957 µM (active) | 0.708 µM (active) | 0.955 µM (active) | 1.04 µM (active) | 0.577 µM (active) |
| CNC(=O)N(CCC#N)CCCN(C(=O)N(C)C)c1ccccc1 | > 100 µM (inactive) | > 100 µM (inactive) | > 100 µM (inactive) | > 100 µM (inactive) | > 100 µM (inactive) | > 100 µM (inactive) | > 100 µM (inactive) | > 100 µM (inactive) | > 100 µM (inactive) | 14.5 µM (inactive) | > 100 µM (inactive) | > 100 µM (inactive) | > 100 µM (inactive) | > 100 µM (inactive) | > 100 µM (inactive) | > 100 µM (inactive) | > 100 µM (inactive) | > 100 µM (inactive) | > 100 µM (inactive) |
| CCOC(=O)C1=C(C)N(c2ccc(C)cc2)C2(O)C=CC(O)=C3C(=O)c4ccccc4C(=O)C312 (stereo not drawn) | 32.2 µM (inactive) | 21.6 µM (inactive) | 25.1 µM (inactive) | < 0.01 µM (active) | 33.1 µM (inactive) | 29.3 µM (inactive) | 34.2 µM (inactive) | 0.374 µM (active) | 39.7 µM (inactive) | 0.635 µM (active) | 44 µM (inactive) | 35.7 µM (inactive) | 68.1 µM (inactive) | 45.2 µM (inactive) | 32.4 µM (inactive) | 36.2 µM (inactive) | 19.5 µM (inactive) | 24.9 µM (inactive) | 24.1 µM (inactive) |
| NNC(=O)c1cccc2c1Oc1ccccc1S2 | > 100 µM (inactive) | 98.6 µM (inactive) | > 100 µM (inactive) | 79.6 µM (inactive) | > 100 µM (inactive) | > 100 µM (inactive) | > 100 µM (inactive) | 55 µM (inactive) | > 100 µM (inactive) | > 100 µM (inactive) | > 100 µM (inactive) | 65.2 µM (inactive) | 77.3 µM (inactive) | 76.2 µM (inactive) | – | > 100 µM (inactive) | > 100 µM (inactive) | > 100 µM (inactive) | 50.6 µM (inactive) |
| Clc1ccc(Cc2nc3ccccc3nc2-c2cccc(Br)c2)cc1 | 2.22 µM (inactive) | 2.92 µM (inactive) | 1.92 µM (inactive) | 2.84 µM (inactive) | 1.91 µM (inactive) | 1.62 µM (inactive) | 18.3 µM (inactive) | 2.22 µM (inactive) | 7.41 µM (inactive) | 1.75 µM (inactive) | 13.7 µM (inactive) | 16.8 µM (inactive) | 16.1 µM (inactive) | 19.8 µM (inactive) | 3.1 µM (inactive) | 2.14 µM (inactive) | 1.8 µM (inactive) | – | 20.4 µM (inactive) |
| CN1CC[C@]23c4c5ccc(O)c4OC2c2[nH]ncc2C[C@H]3[C@H]1C5 (stereo partly drawn) | > 100 µM (inactive) | > 100 µM (inactive) | > 100 µM (inactive) | > 100 µM (inactive) | > 100 µM (inactive) | > 100 µM (inactive) | > 100 µM (inactive) | > 100 µM (inactive) | > 100 µM (inactive) | > 100 µM (inactive) | > 100 µM (inactive) | > 100 µM (inactive) | > 100 µM (inactive) | > 100 µM (inactive) | > 100 µM (inactive) | > 100 µM (inactive) | > 100 µM (inactive) | > 100 µM (inactive) | 94.6 µM (inactive) |
